Experimental data: patent US10479780B2, “Aminopyrazole derivatives” (Chugai Seiyaku Kabushiki Kaisha, priority 2015, dated 2019)
Where two headings read alike, the source gives them in different places.

Tests used:
Format in all cases: biochemical
[1] = molecular target: T1, human Yes1 enzyme (Homo sapiens, UniProt P07947); test: Yes1 enzyme inhibitory activity (time-resolved fluorometry, biotinylated peptide phosphorylation); details: read-out: YES_IC50
T1 construct: made in house
In short: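 Inhibition was expressed against a compound-free control to give IC50, using TR-FRET read-out (Eu-cryptate anti-pTyr antibody, streptavidin-XL665).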

[2] = molecular target: T2, human Src enzyme (Homo sapiens, UniProt P12931); test: Src enzyme inhibitory activity (time-resolved fluorometry, biotinylated peptide phosphorylation); details: read-out: SRC_IC50
T2 construct: purchased Carna Biosciences, Inc. 08-173
In short: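 Compounds were tested for blocking tyrosine phosphorylation of a biotinylated peptide substrate by recombinant human Src. Phosphorylated product was quantified by time-resolved fluorometry using europium cryptate and XL665 conjugates, and IC50 was calculated against the compound-free control.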

[3] = molecular target: T3, human Lck enzyme (Homo sapiens, UniProt P06239); test: Lck enzyme inhibitory activity (time-resolved fluorometry, biotinylated peptide phosphorylation); details: read-out: LCK_IC50
T3 construct: purchased Carna Biosciences, Inc. 08-170
In short: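 Readout pairs a europium cryptate-labelled anti-phosphotyrosine antibody with XL665-streptavidin, measured by time-resolved fluorescence. IC50 derived from percent inhibition against untreated controls.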

[4] = biotinylated peptide phosphorylation

T3 sequence (P06239 whole entry): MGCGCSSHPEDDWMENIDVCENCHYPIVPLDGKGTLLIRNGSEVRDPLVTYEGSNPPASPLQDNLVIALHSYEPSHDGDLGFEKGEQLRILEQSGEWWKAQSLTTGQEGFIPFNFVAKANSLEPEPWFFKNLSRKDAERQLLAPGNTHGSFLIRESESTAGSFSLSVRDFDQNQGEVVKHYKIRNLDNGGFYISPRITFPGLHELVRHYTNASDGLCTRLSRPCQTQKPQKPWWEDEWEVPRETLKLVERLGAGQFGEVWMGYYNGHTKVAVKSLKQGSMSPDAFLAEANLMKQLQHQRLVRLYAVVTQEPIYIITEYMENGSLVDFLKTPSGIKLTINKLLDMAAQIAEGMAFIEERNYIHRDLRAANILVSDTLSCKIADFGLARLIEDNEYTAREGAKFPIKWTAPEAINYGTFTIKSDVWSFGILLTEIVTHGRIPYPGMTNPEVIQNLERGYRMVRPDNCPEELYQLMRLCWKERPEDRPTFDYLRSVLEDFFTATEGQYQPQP
T1 sequence (P07947 whole entry): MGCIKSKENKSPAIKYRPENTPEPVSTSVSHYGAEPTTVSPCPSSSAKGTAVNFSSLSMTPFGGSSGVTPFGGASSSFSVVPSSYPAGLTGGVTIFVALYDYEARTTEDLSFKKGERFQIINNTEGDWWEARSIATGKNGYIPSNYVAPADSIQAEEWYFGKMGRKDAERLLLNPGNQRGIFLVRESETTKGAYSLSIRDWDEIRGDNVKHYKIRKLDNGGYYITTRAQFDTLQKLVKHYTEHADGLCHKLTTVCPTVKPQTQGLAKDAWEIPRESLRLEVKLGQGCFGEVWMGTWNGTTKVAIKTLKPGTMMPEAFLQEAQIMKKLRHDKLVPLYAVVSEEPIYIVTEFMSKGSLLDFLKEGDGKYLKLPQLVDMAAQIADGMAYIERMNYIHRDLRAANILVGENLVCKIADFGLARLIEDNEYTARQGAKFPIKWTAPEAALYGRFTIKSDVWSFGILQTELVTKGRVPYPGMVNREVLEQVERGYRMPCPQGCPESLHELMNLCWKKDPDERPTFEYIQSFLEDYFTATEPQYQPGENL
T2 sequence (P12931 whole entry): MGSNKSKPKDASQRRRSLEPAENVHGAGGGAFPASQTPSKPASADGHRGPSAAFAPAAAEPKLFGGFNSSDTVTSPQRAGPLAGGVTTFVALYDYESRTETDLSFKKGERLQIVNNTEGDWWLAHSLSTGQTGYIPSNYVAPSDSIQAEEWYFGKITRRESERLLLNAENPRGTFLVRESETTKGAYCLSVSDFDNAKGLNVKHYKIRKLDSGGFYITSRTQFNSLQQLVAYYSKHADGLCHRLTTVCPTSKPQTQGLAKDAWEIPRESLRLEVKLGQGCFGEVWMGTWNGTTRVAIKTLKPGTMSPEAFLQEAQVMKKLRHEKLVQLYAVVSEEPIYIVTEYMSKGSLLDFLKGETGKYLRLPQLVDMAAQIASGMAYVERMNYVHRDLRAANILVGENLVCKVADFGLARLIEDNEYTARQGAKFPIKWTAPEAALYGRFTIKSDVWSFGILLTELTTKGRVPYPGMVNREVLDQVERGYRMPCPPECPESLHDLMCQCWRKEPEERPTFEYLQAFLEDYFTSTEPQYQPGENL

Row | SMILES | IC50 [1, 4] [nM] | IC50 [2, 4] [nM] | IC50 [3, 4] [nM] | IC50 [1] [nM] | IC50 [2] [nM] | IC50 [3] [nM]
1 | Cc1cc(Oc2ccccc2F)cc(F)c1-n1ncc(C(=O)c2cc3cc(OC(F)F)c(N4CCOCC4)cc3[nH]2)c1N [Example 4-25-025, [5-amino-1-[2-fluoro-4-(2-fluorophenoxy)-6-methylphenyl]pyrazol-4-yl]-[5-(difluoromethoxy)-6-morpholin-4-yl-1H-indol-2-yl]methanone] | 17 | 80 | 31 | – | – | –
2 | Cc1cc2cc(C(=O)c3cnn(-c4ccc(Oc5ccccc5F)cc4C)c3N)[nH]c2cc1N1C(=O)CNC1=O [Example 5-1-434, 3-[2-[5-amino-1-[4-(2-fluorophenoxy)-2-methylphenyl]pyrazole-4-carbonyl]-5-methyl-1H-indol-6-yl]imidazolidine-2,4-dione] | 0.44 | 15 | 4.1 | – | – | –
3 | Cc1cc(Oc2ccccc2F)ccc1-n1ncc(C(=O)c2cc3cc(OCC(F)F)c(NC4CCN(S(C)(=O)=O)CC4)cc3[nH]2)c1N [Example 4-23-017, [5-amino-1-[4-(2-fluorophenoxy)-2-methylphenyl]pyrazol-4-yl]-[5-(2,2-difluoroethoxy)-6-[(1-methylsulfonylpiperidin-4-yl)amino]-1H-indol-2-yl]methanone] | 5.1 | 28 | 13 | – | – | –
4 | Cc1ccc(S(=O)(=O)Nc2cc3[nH]c(C(=O)c4cnn(-c5cnc(Oc6c(F)cccc6F)cc5C)c4N)cc3cc2OCC(F)F)cc1 [Example 5-1-300, N-[2-[5-amino-1-[6-(2,6-difluorophenoxy)-4-methylpyridin-3-yl]pyrazole-4-carbonyl]-5-(2,2-difluoroethoxy)-1H-indol-6-yl]-4-methylbenzenesulfonamide] | – | – | – | 9.5 | 730 | 140
5 | Cc1cc2cc(C(=O)c3cnn(-c4cnc(Oc5cccc(F)c5F)cc4C)c3N)[nH]c2cc1NS(C)(=O)=O [Example 4-2-062, N-[2-[5-amino-1-[6-(2,3-difluorophenoxy)-4-methylpyridin-3-yl]pyrazole-4-carbonyl]-5-methyl-1H-indol-6-yl]methanesulfonamide] | 3.2 | 130 | 21 | – | – | –
6 | Cc1cc(Oc2ccccc2F)ccc1-n1ncc(C(=O)c2cc3cc(F)c(NS(=O)(=O)c4cccc(Cl)n4)cc3[nH]2)c1N [Example 5-1-527, N-[2-[5-amino-1-[4-(2-fluorophenoxy)-2-methylphenyl]pyrazole-4-carbonyl]-5-fluoro-1H-indol-6-yl]-6-chloropyridine-2-sulfonamide] | 3.2 | 500 | 110 | – | – | –
7 | Cc1cc(Oc2ccccc2F)ncc1-n1ncc(C(=O)c2cc3cc(OCC(F)F)c(NS(C)(=O)=O)cc3[nH]2)c1N [Example 4-24-028, N-[2-[5-amino-1-[6-(2-fluorophenoxy)-4-methylpyridin-3-yl]pyrazole-4-carbonyl]-5-(2,2-difluoroethoxy)-1H-indol-6-yl]methanesulfonamide] | 1.2 | 37 | 14 | – | – | –
8 | Cc1cc(Oc2ccccc2F)ccc1-n1ncc(C(=O)c2cc3cc(OC(F)F)c(NS(=O)(=O)CCC(F)F)cc3[nH]2)c1N [Example 4-24-004, N-[2-[5-amino-1-[4-(2-fluorophenoxy)-2-methylphenyl]pyrazole-4-carbonyl]-5-(difluoromethoxy)-1H-indol-6-yl]-3,3-difluoropropane-1-sulfonamide] | 3.1 | 41 | 17 | – | – | –
9 | Cc1cc(Oc2c(F)cccc2F)ncc1-n1ncc(C(=O)c2cc3cc(OC(F)F)c(NS(C)(=O)=O)cc3[nH]2)c1N [Example 4-24-011, N-[2-[5-amino-1-[6-(2,6-difluorophenoxy)-4-methylpyridin-3-yl]pyrazole-4-carbonyl]-5-(difluoromethoxy)-1H-indol-6-yl]methanesulfonamide] | 2.3 | 64 | 13 | – | – | –
10 | Cc1cc2cc(C(=O)c3cnn(-c4cnc(Oc5ccccc5F)cc4C)c3N)[nH]c2cc1NS(=O)(=O)c1cncc(C(F)(F)F)c1 [Example 5-1-487, N-[2-[5-amino-1-[6-(2-fluorophenoxy)-4-methylpyridin-3-yl]pyrazole-4-carbonyl]-5-methyl-1H-indol-6-yl]-5-(trifluoromethyl) pyridine-3-sulfonamide] | 11 | 510 | 110 | – | – | –
11 | Cc1cc(Oc2c(F)cccc2F)ncc1-n1ncc(C(=O)c2cc3cc(OCC(F)F)c(NS(=O)(=O)c4cncc(Cl)c4)cc3[nH]2)c1N [Example 5-1-575, N-[2-[5-amino-1-[6-(2,6-difluorophenoxy)-4-methylpyridin-3-yl]pyrazole-4-carbonyl]-5-(2,2-difluoroethoxy)-1H-indol-6-yl]-5-chloropyridine-3-sulfonamide] | 4.3 | 650 | 46 | – | – | –
12 | Cc1cc2cc(C(=O)c3cnn(-c4cnc(Oc5ccccc5F)cc4C)c3N)[nH]c2cc1N1CCCS1(=O)=O [Example 4-16-001, {5-amino-1-[6-(2-fluorophenoxy)-4-methylpyridin-3-yl]pyrazol-4-yl}-[6-(1,1-dioxo-1,2-thiazolidin-2-yl)-5-methyl-1H-indol-2-yl]methanone] | 0.62 | 16 | 4.5 | – | – | –
13 | Cc1cc(Oc2ccccc2F)ccc1-n1ncc(C(=O)c2cc3cc(OCC(F)F)c(-n4c(C)cc(=O)[nH]c4=O)cc3[nH]2)c1N [Example 4-23-030, 1-[2-[5-amino-1-[4-(2-fluorophenoxy)-2-methylphenyl]pyrazole-4-carbonyl]-5-(2,2-difluoroethoxy)-1H-indol-6-yl]-6-methylpyrimidine-2,4-dione] | 1.4 | 6.4 | 3.8 | – | – | –
14 | Cc1cc2cc(C(=O)c3cnn(-c4cnc(Oc5ccccc5F)cc4C)c3N)[nH]c2cc1NS(=O)(=O)c1cccc2ccccc12 [Example 5-1-465, N-[2-[5-amino-1-[6-(2-fluorophenoxy)-4-methylpyridin-3-yl]pyrazole-4-carbonyl]-5-methyl-1H-indol-6-yl]naphthalene-1-sulfonamide] | 25 | 4000 | 510 | – | – | –
15 | CCN(c1cc2[nH]c(C(=O)c3cnn(-c4cnc(Oc5c(F)cccc5F)cc4C)c3N)cc2cc1F)S(C)(=O)=O [Example 4-2-126] | 1.3 | 13 | 2 | – | – | –
16 | Cc1cc2cc(C(=O)c3cnn(-c4cnc(Oc5ccccc5F)cc4C)c3N)[nH]c2cc1NS(=O)(=O)c1cc(F)ccn1 [Example 5-1-505, N-[2-[5-amino-1-[6-(2-fluorophenoxy)-4-methylpyridin-3-yl]pyrazole-4-carbonyl]-5-methyl-1H-indol-6-yl]-4-fluoropyridine-2-sulfonamide] | 2.5 | 470 | 68 | – | – | –
17 | Cc1cc(Oc2c(F)cccc2F)ncc1-n1ncc(C(=O)c2cc3cc(OC4CCN(C(C)C)CC4)c(N4CCC(N5CCOCC5)CC4)cc3[nH]2)c1N [Example 5-1-201, [5-amino-1-[6-(2,6-difluorophenoxy)-4-methylpyridin-3-yl]pyrazol-4-yl]-[6-(4-morpholin-4-ylpiperidin-1-yl)-5-(1-propan-2-ylpiperidin-4-yl)oxy-1H-indol-2-yl]methanone] | – | – | – | 0.25 | 3.5 | 3.2
18 | Cc1cc(Oc2ccccc2F)ncc1-n1ncc(C(=O)c2cc3cc(F)c(NS(=O)(=O)NC4CCOCC4)cc3[nH]2)c1N [Example 4-5-012, [5-amino-1-[6-(2-fluorophenoxy)-4-methylpyridin-3-yl]pyrazol-4-yl]-[5-fluoro-6-(oxan-4-ylsulfamoylamino)-1H-indol-2-yl]methanone] | 1 | 78 | 12 | – | – | –
19 | Cc1cc(Oc2ccccc2F)ncc1-n1ncc(C(=O)c2cc3cc(OC(F)F)c(N4CCOC4=O)cc3[nH]2)c1N [Example 4-25-018, 3-[2-[5-amino-1-[6-(2-fluorophenoxy)-4-methylpyridin-3-yl]pyrazole-4-carbonyl]-5-(difluoromethoxy)-1H-indol-6-yl]-1,3-oxazolidin-2-one] | 0.72 | 20 | 1.7 | – | – | –
20 | Cc1cc2cc(C(=O)c3cnn(-c4cnc(Oc5ccc(F)cc5)cc4C)c3N)[nH]c2cc1NS(C)(=O)=O [Example 4-2-067, N-[2-[5-amino-1-[6-(4-fluorophenoxy)-4-methylpyridin-3-yl]pyrazole-4-carbonyl]-5-methyl-1H-indol-6-yl]methanesulfonamide] | 6.3 | 97 | 59 | – | – | –
21 | Cc1cc(Oc2c(F)cccc2F)ncc1-n1ncc(C(=O)c2cc3cc(F)c(N(CCN4CCOCC4)S(C)(=O)=O)cc3[nH]2)c1N [Example 4-2-128, N-[2-[5-amino-1-[6-(2,6-difluorophenoxy)-4-methylpyridin-3-yl]pyrazole-4-carbonyl]-5-fluoro-1H-indol-6-yl]-N-(2-morpholin-4-ylethyl)methanesulfonamide] | 1.2 | 8.6 | 2.7 | – | – | –
22 | Cc1cc(-n2ncc(C(=O)c3cc4cc(OC5CCN(C(C)C)CC5)c(Br)cc4[nH]3)c2N)c(F)cc1Oc1ccccc1F [Example 5-1-212, [5-amino-1-[2-fluoro-4-(2-fluorophenoxy)-5-methylphenyl]pyrazol-4-yl]-[6-bromo-5-(1-propan-2-ylpiperidin-4-yl)oxy-1H-indol-2-yl] methanone] | – | – | – | 4.5 | 220 | 60
